Key:
integrin αvβ3 = target: T1, integrin αvβ3 (Homo sapiens, UniProt P05106+P06756); assay: Integrin αvβ3 assay (competition between vitronectin and the test substance for binding to solid phase-bound integrin αvβ3); conditions: integrin αvβ3 from human placenta; human vitronectin as competing ligand; result in words only
T1 construct: from tissue; host or cells: human placenta
Method: For the identification and assessment of integrin αvβ3 ligands, a test system was used which was based on competition between the natural integrin αvβ3 ligand vitronectin and the test substance for binding to solid phase-bound integrin αvβ3.
• Microtiter plates coated with 250 ng/ml of integrin αvβ3 in 0.05 M NaHCO3 pH 9.2; 0.1 ml/well; • saturation with 1% powdered milk/assay buffer; 0.3 ml/well; 0.5 h/RT • 3× washing with 0.05% Tween 20/assay buffer • test substance in 0.1% powdered milk/assay buffer, 50 μl/well+0 μg/ml or 2 μg/ml of human vitronectin (Boehringer Ingelheim T007) in 0.1% powdered milk/assay buffer, 50 μl/well; 1 h/RT • 3× washing with 0.05% Tween 20/assay buffer • 1 μg/ml of anti human vitronectin antibody coupled to peroxidase (Kordia SAVN-APHRP) in 0.1% powdered milk/assay buffer; 0.1 ml/well; 1 h/RT • 3× washing with 0.05% Tween 20/assay buffer • 0.1 ml/well of peroxidase substrate • stop reaction with 0.1 ml/well of 2 M H2SO4 • measurement of the absorption at 450 nm
Integrin αvβ3: Human placenta is solubilized with Nonidet and integrin αvβ3 affinity-purified on a GRGDSPK matrix (elution with EDTA). Impurities due to integrin αIIbβ3 and human serum albumin, and the detergent and EDTA are removed by anion-exchange chromatography.
Assay buffer: 50 mM Tris pH 7.5; 100 mM NaCl; 1 mM CaCl2; 1 mM MgCl2; 10 μM MnCl2 […]

melting point | IC50 values (concentration of the ligand at which 50% of the ligand is displaced) (integrin αvβ3) | SMILES
231 °C (dec.) |  | CC(C)(C)OC(=O)CC1CCC(=O)N(CC(=O)NCc2ccc(Nc3nc4ccccc4[nH]3)cc2)c2ccccc21 (centres unmarked) [Example 99, tert-Butyl [1-(2-{[4-(1H-benzimidazole-2-ylamino)benzyl]amino}-2-oxoethyl)-2-oxo-2,3,4,5-tetrahydro-1H-1-benzazepine-5-yl]acetate]
 | best result | O=C(O)CC1CCC(=O)N(CC(=O)NCc2ccc(-c3nc4ccccc4[nH]3)cc2)c2ccccc21 (centres unmarked) [Example VII, [1-(2-{[4-(1H-Benzimidazol-2-yl)benzyl]amino}-2-oxoethyl)-2-oxo-2,3,4,5-tetrahydro-1H-1-benzazepin-5-yl]acetic acid]
